The nature of data set [1]: Prospective phase I open label safety study of intermittent 160 ppm gNO inhalation in healthy adults. Type of data set: in vivo, human. An excerpt:
10 healthy adult volunteer subjects (5 males, 5 females), aged 20 to 62 years, were enrolled in the study after screening their medical history, a physical examination, pulmonary function tests and blood values. Exclusion criteria included individuals less than 19 years of age, pregnant females and unwilling to practice birth control during the study, diagnosed with pulmonary disease, epistaxis, hemoptysis, methemoglobinemia, organ transplant recipient or receiving antibiotic therapy.
After obtaining informed consent, treatment was initiated within 5 days of enrollment. Subjects were housed in a hospital ward and received 160 ppm gNO for 30 minutes every four hours (Q4h), five times a day, for five consecutive days by inhalation. Subjects returned for follow-up evaluations 3, 7 and 21 days after the final gNO administration. Subject safety was determined by monitoring vital signs, methemoglobin levels, lung function, blood chemistry, hematology, prothrombin time, inflammatory cytokine/chemokines levels and endothelial activation. These parameters were compared to baseline and at various time-points during and after gNO administration.
Subjects were administered gNO through a modified disposable mouthpiece to maximize mixing. Inspiration was spontaneously initiated by the subject from a conventional intermittent positive pressure breathing respirator (Mark-7, Carefusion, USA) in fixed flow mode delivering 48 liters per minute (LPM). Flows of gas were verified with a calibrated mass flow meter (TSI, USA). Gaseous nitric oxide (gNO, obtained at INOmax, Ikaria, USA) at a concentration of 800 ppm delivered at a flow of 12 LPM was titrated into a distal delivery port on the mouth piece connected to the respirator during inspiratory phase only (pressure switch). The Mark 7 respirator was supplied by an air/oxygen blender (Bird Sentry, Carefusion, USA) set to deliver 26% oxygen.
The levels of gNO, NO2, O2 and methemoglobin were monitored during the administration of gNO. The target gas mixture was 160 ppm gNO with a nitrogen dioxide (NO2) level of less than 5 ppm and an oxygen (O2) level ranging from 21% to 25%. Inspiratory NO, NO2 and O2 levels were continuously monitored by sampling from the mouthpiece sample port located about 6 millimeters from the mouth of the subject with an AeroNOx (Pulmonox, AB, Canada) NO, NO2 and O2 electrochemical analyzer. Delivery safety was determined by the number of occasions that NO2 exceeded 5 ppm, gNO exceeding 10% variation and O2 dropping below 20% during gNO administration. A commercially available noninvasive pulse oximeter (Rad 57, Masimo Corporation, USA) was used to measure saturation levels at the periphery of methemoglobin (SpMet).
These parameters were measured continuously during every gNO administration course and for 3.5 hours after the first treatment of the day. Daily serum samples were collected and frozen at −80° C. and the serum […] level was measured using the Griess reagent.
Subjects underwent full pulmonary function tests (PFT), including lung diffusing capacity (DLCO) by a trained technician utilizing a calibrated pulmonary function system (Jaeger MasterScreen, VIASYS Healthcare, USA) on screening and days 2, 8, 12 and 26. Spirometry test (Microloop by Micro Medical, England) was performed on days 1, 3 and 4. Effect of gNO on lung function and DLCO was determined by changes from baseline, treatment days and follow up days.
General medical examinations were performed by a pulmonary physician on screening and on days 8, 12 and 26 to obtain oxygenation and vital sign measurements. Abbreviated physical examination by a registered nurse was carried out each day prior to initiation of treatments on days 1-5. Oxygenation was measured with a pulse oximeter (Rad 57, Masimo Corporation, USA) which was used according to manufacturer's guidelines to measure functional oxygen saturation of arterial hemoglobin (SpO2) and heart rate. […]

For data set [2] the following is noted: cited from earlier work.
For data set [3] the following is noted: in vivo; cited from earlier work.
Data set [4] concerns five planktonic species of methicillin resistant S. aureus (MRSA). The following applies: 1,600 ppm hours of gNO; cited from earlier work.
The test system of another data set is P. aeruginosa. The following applies: agar plates exposed to gNO; cited from earlier work.
Data set [5] can be described thus: Randomized double blind study of intermittent gNO inhalation in infants with bronchiolitis, interim results. The following applies: infants 2-12 months. Type of data set: in vivo, human. The text has this:
The following is an exemplary protocol for clinical studies based on the methods according to embodiments of the present invention, aimed at treatment of bronchiolitis in humans. Specifically, the topic of the study is a randomized double blind evaluation of efficacy, safety and tolerability of nitric oxide given intermittently via inhalation to subjects with bronchiolitis.
An improvised inhalation device is based on standard hospital equipment and hospital oxygen source. For example, oxygen is supplied from the main hospital oxygen system via an oxygen blender, such as for example, Bird model 03800, followed by a hospital's oxygen mass flow meter. The oxygen-rich air is monitored so as to reach a maximal final concentration of about 40% O2. The blended air/oxygen is supplied to the subject via a Y-shape connector attached next to a standard hospital face mask such as for example, a Hospiltak mask by Unomedical Inc.
gNO flow, tapped from a tank containing 800 ppm nitric oxide in 99.999% pure N2, supplied by an authorized gas provider in, for example, 50 or 30 litter containers with 120 bar or 150 bar respectively, is adjusted by passing through a standard hospital's regulator, such as for example CareFusion™ model 400, and the hospital mass flow meter, such as a CareFusion™ model 77063.
The gNO flow is adjusted before each inhalation cycle based on the gNO concentration detected in the subject's mask. After a fresh system calibration, the regulator and the mass flow meter are adjusted to deliver 160 ppm of gNO at 5 to 15 liters per minute. gNO is supplied to the subject via the second arm of the Y shaped connector (specified above) attached next to the face mask. Mask and tubing ports are used to monitor continuously gNO and NO2 concentrations and FiO2 values delivered to the subject.
Halitus (exhalation) is monitored by, for example, end-tidal CO2 (EtCO2). EtCO2 is monitored using standard equipment such as Microcap® Portable Capnography Monitor, Cat.# CSO4179 by Oridion, Israel, with nasal prongs such as (Infant Neonate Cat.#008179 by Oridion, Israel.
Methemoglobin (SpMet) and oxygen saturation or dissolved oxygen (SpO2) levels are monitored continuously using a dedicated monitor such as for example RAD 57 by Masimo.
The population for the study is 44 children of 2-12 months old diagnosed with bronchiolitis, whom required hospitalization (expected dropout rate is 10%). The population is split into two groups: Group 1, referred to as the treatment group, receives intermittent (5×30 minutes, a day) inhalation of 160 ppm gNO in addition to the standard treatment of O2 administration, for up to 5 days. Between gNO inhalations, the subjects continue to receive the standard inhalation treatment (O2). Group 2, referred to as the control group, receives continuous inhalation of the standard treatment (O2).
Group 1 (treatment group) receives the standard treatment (O2) combined with the inhalation via face mask of […] administered for 30 minutes every four hours, keeping a minimum of 3 hours between the end of one gNO inhalation cycle and the beginning of the next cycle, five times a day for five consecutive days or until a decision to discontinue therapy. The maximal cumulative exposure to nitric oxide is estimate at 2,000 ppm hours.

The subject of data set [6] is human respiratory syncytial virus (rgRSV30). As to the kind of experiment: Plaque assay of gNO-exposed respiratory syncytial virus. Type of data set: cell-based. The following applies: 160 ppm exogenous gaseous NO.
Data set [7] has as its system influenza A/victoria/H3N2. The following applies: 160 ppm exogenous gNO, MDCK cell model; cited from earlier work.
The conditions of data set [8]: topical 200 ppm gNO, within the first three days of treatment; cited from earlier work.
The next data set deals with S. aureus. The following applies: agar plates exposed to gNO; cited from earlier work.
Data set [9] relates to highly pathogenic Avian Influenza H7N3. The following applies: cited from earlier work.
The conditions of data set [10]: 300 ppm gNO, first 1-2 days, group of 10 rats; cited from earlier work.
Where [11] appears, read: 250 gNO administration procedures, 10 subjects.
[12] abbreviates: during and after gNO administration.

Here are results for one compound from patent US20150072023A1, “[…] NITRIC OXIDE FOR TREATING RESPIRATORY DISEASES” (Advanced Inhalation Therapies (AIT) Ltd., priority 2013, published 2015).

“Also recorded” adds a separate entry of the source.

As for `[N]=O` [gNO, nitric oxide], in [1] (160 ppm gNO for 30 minutes, ten individuals), the “average increase of SpMet in a single treatment course” value is 0.9%. In [1] (setting [11]), the “adverse events / tolerability” value is “do not cause lung injury or other signs of adverse effects in humans; also recorded: Neither significant adverse events nor adverse events attributable to gNO inhalation occurred; also recorded: safe and well tolerated; also recorded: no significant adverse events were observed”; the “number of minor adverse events reported” value is recorded as “Three”. Besides, the “plasma cytokine levels of TNF, IL-6, IL-8, IL-10, IL-1b and IL-12p70” value in [1] (cytometric bead array, vs baseline) was “unaffected; also recorded: remained constant”. Also, in data set [1] (setting [12]), the pulmonary function tests entry is given as “impacts lung function only minimally; also recorded: remained unchanged compared to baseline values” and the vital signs entry is listed as “remained well within acceptable clinical margins”. Also, the “accumulative or residual effect on SpMet” value in data set [1] (five daily treatments for five consecutive days, follow-up 3, 7 and 21 days) was “no accumulative or lingering effect; also recorded: did not show any residual increase in SpMet”. Moreover, the “vascular endothelial activation factors Ang-1, Ang-2, Ang-2/Ang-1 ratio” value in data set [1] (plasma, vs baseline) is given as “not affected; also recorded: unaffected”. Further, in [2] (OSHA / Environmental Protection Agency), the “inhalation threshold limit value (TLV) as time-weighted average (TWA)” value is 25 ppm. Further, the “TLV-TWA in ppm hours units” value in data set [2] (calculated) is given as 200 ppm hours. In addition, the “radius of action from its site of origin” value in data set [3] was “approximately 200 microns”. Besides, the bacterial population entry in data set [4] is reported as “reduction in the population”. Further, the “effect on bacterial growth” value in the data set with P. aeruginosa is listed as “bacteristatic effect”. In addition, in data set [5], the “NO2 levels during treatment” value is given as “below 2 ppm”, the “pre-methemoglobin levels in each treatment” value is on record as “less than 5%”, the “premature withdrawal due to NO related adverse effect” value is “no infant withdrew prematurely” and the tolerability result is “All patients tolerated the NO treatment”. The “time for SpMet to return to the baseline levels” value in data set [5] (160 ppm gNO 30 min) was 210 min. The infectivity entry in [6] is given as “reduced their infectivity”. The “viral replication and infectivity” value in [7] was “reduced their infectivity; also recorded: capable of reducing the infectivity”. Besides, the biofilm result in data set [8] is “no longer visibly present”. In addition, the “effect on bacterial growth” value in the data set on S. aureus is “bacteristatic effect”. For the same compound, the “viral replication and infectivity” value in data set [9] is listed as “reduced their infectivity; also recorded: capable of reducing the infectivity”. Moreover, the “number of animals that died” value in data set [10] is recorded as “Six”.
